Data: patent US12097177B2, “Therapeutic method for cat with chronic kidney disease” (Toray Industries, Inc., priority 2021, dated 2024)

Key:
[1] = test system: patient with chronic renal failure; settings: BPS immediate release tablets; serum creatinine of 2.2 mg/dl or higher; cited from earlier work
cats with CKD [2] = assay: Retrospective observation study: survival period / overall survival rate (all-cause death), BPS therapy vs No BPS therapy; format: in vivo, cat; settings: for average survival period / median survival period: Kaplan-Meier
Protocol: Based on the drug prescription records, cats were divided into two groups: a BPS therapy group consisting of 17 cats; and a BPS therapy-free group consisting of 67 cats, and baseline characteristics and the survival periods were compared and analyzed retrospectively. To the cats in the BPS therapy group, BPS drugs for veterinary use, RAPROS (trademark) (Toray Industries, Inc.), were administered while adjusting the amount of BPS to 20.0 to 49.1 μg/kg body weight/day and the median to 31.4 μg/kg body weight/day twice daily during or after morning and evening feeding occasions. By designating all-cause death as the outcome, the start date of treatment as the point of origin for the cats in the BPS therapy group, and the start date of observation as the point of origin for the cats in the No BPS therapy group based on the death records, the periods (months) before the outcome was observed were recorded. In analysis, the 2-year overall survival rates (%) of the BPS therapy group and of the No BPS therapy group, the standard errors thereof, the 95% confidence intervals, and the comparison of the 2-year overall survival rates (%) between the groups were calculated. […] Differences in the overall survival rates were assessed by the log rank test, the Cochran-Mantel-Haenszel test, by setting significant level at a two-tailed P-value of <0.05. […]
From among the cats with CKD, the data sets of […] having body weight of less than 3.5 kg were extracted, and the cats were divided into two groups: a BPS therapy group consisting of 19 cats; and a BPS therapy-free group consisting of 40 cats. In the same manner as described above, the 3-year overall survival rates (%) and the average survival periods were compared between the groups.

cats with CKD [3] = assay: Retrospective observation study: period before progression into IRIS stage 4, BPS therapy vs No BPS therapy (Kaplan-Meier); format: in vivo, cat; settings: for 3-year stage progression-free rate: cats with CKD, twice daily
Protocol: To compare the periods before progression of feline CKD into stage 4 with BPS therapy and without BPS therapy, the following retrospective observation studies were performed. The studies were performed at Ichikawa General Hospital, Kariya Animal Hospital, Inc., that had adopted the electronic chart system for veterinary hospitals, Ahmics (trademark) (PetCommunications Co., Ltd.), and completely eliminated the use of paper charts before 2017. In this hospital, all-encompassing information concerning medical treatment such as test data, death records, and drug prescription records of all patient animals have been managed by the electronic chart system. Specifically, the data sets of 1,681 cats subjected to the serum creatinine test and the data sets of 1,399 cats subjected to the urinalysis from Apr. 1, 2017 to Dec. 10, 2020 were extracted. Among them, by excluding 951 cats without records, the data sets of 730 cats that were diagnosed to have CKD as a result of serum creatinine tests at least two times, urinalysis, and other clinical tests were extracted.
Based on the drug prescription records, cats were divided into two groups: a BPS therapy group consisting of 57 cats; and a BPS therapy-free group consisting of 77 cats, and the baseline characteristics and the periods before progression into stage 4 were compared and analyzed retrospectively. To the cats in the BPS therapy group, BPS drugs for veterinary use, RAPROS (trademark) (Toray Industries, Inc.), were administered while adjusting the amount of BPS to 14.1 to 52.4 μg/kg body weight/day and the median to 29.1 μg/kg body weight/day twice daily during or after morning and evening feeding occasions. […] Progression into stage 4 was examined by the method defined by the IRIS staging. Specifically, progression into stage 4 was determined based on serum creatinine or serum SDMA measured to be higher than 5.0 mg/dL or higher than 38 μg/dL, respectively, via two or more hospital visits. By designating progression into stage 4 as the outcome, the start date of treatment as the point of origin for the cats in the BPS therapy group, and the start date of observation as the point of origin for the cats in the No BPS therapy group, the periods (months) before the outcome was observed were recorded. In analysis, the 3-year stage progression-free rates (%) of the BPS therapy group and of the No BPS therapy group, the standard errors thereof, the 95% confidence intervals, and the comparison of the 3-year stage progression-free rates (%) between the groups were calculated. […] The average period (months) before progression into stage 4, the standard error thereof, the 95% confidence intervals, the medians and the standard errors thereof, the 95% confidence intervals, and the comparison of the average stage progression-free periods were calculated. Differences in the stage progression-free rates were assessed by the log rank test, the Cochran-Mantel-Haenszel test, by setting significant level at a two-tailed P-value of <0.05.
Based on the drug prescription records, cats were divided into two groups: a BPS therapy group consisting of 37 cats; and a BPS therapy-free group consisting of 332 cats, and the baseline characteristics and the periods before progression into stage 4 were compared and analyzed retrospectively. To the cats in the BPS therapy group, BPS drugs for veterinary use, RAPROS (trademark) (Toray Industries, Inc.), were administered while adjusting the amount of BPS to 18.5 to 42.3 μg/kg body weight/day and the median to 26.5 μg/kg body weight/day twice daily during or after morning and evening feeding occasions. Progression into stage 4 was examined by the method defined by the IRIS staging. Specifically, progression into stage 4 was determined based on serum creatinine or serum SDMA measured to be higher than 5.0 mg/dL or higher than 38 μg/dL, respectively, via two or more hospital visits. […]

[4] = test system: cats with naturally occurring CKD; settings: cited from earlier work
[5] = cats with CKD having body weight of less than 3.5 kg
[6] = stage 3 and body weight of less than 4.2 kg
[7] = stage 2 (serum creatinine 1.6 to 2.8 mg/dL)
[8] = stage 3 (serum creatinine 2.9 to 5.0 mg/dL)
[9] = stage 3 (serum creatinine 2.9 to 5.0 mg/dL), Kaplan-Meier
[10] = 55 μg or 6 to 26.4 μg/kg, preferably twice daily for 30 days or longer (WO '949)

Compound: CC#CCC(C)[C@H](O)/C=C/[C@@H]1[C@H]2c3cccc(CCCC(=O)[O-])c3O[C@H]2C[C@H]1O.[Na+] (some centres unmarked) [BPS, Beraprost sodium]
- effects of BPS in chronic renal failure [1]: effects of BPS are not observed
- 3-year overall survival rate of BPS therapy group relative to No BPS therapy group (cats with CKD [2]; [5]): 2.90 times
- average survival period of BPS therapy group relative to No BPS therapy group (cats with CKD [2]; [5]): 1.66 times
- 3-year overall survival rate (cats with CKD [2]; cats with CKD, serum creatinine 1.6 to 2.8 mg/dL (stage 2)): 52.2%
- 3-year overall survival rate (cats with CKD [2]; cats with CKD, serum creatinine 2.9 to 5.0 mg/dL (stage 3)): 33.5%
- 2-year overall survival rate (cats with CKD [2]; cats with CKD, serum creatinine higher than 5.0 mg/dL (stage 4), BPS 20.0 to 49.1 μg/kg body weight/day, twice daily): 25.9%
- 3-year overall survival rate of BPS therapy group relative to No BPS therapy group (cats with CKD [2]; stage 2): 0.72 times
- average survival period of BPS therapy group relative to No BPS therapy group (cats with CKD [2]; stage 2): 0.90 times
- average survival period (cats with CKD [2]; stage 2): 31.5 months
- effect on overall survival rate or observed survival rate (cats with CKD [2]; stage 2 before initiation of administration): no effects of BPS administration to improve the overall survival rate or the observed survival rate were observed
- average survival period of BPS therapy group relative to No BPS therapy group (cats with CKD [2]; stage 3): 1.54 times
- 3-year overall survival rate of BPS therapy group relative to No BPS therapy group (cats with CKD [2]; stage 3 (Example 4)): 1.85 times
- 3-year overall survival rate (cats with CKD [2]; stage 3 (serum creatinine 2.9 to 5.0 mg/dL) and body weight of less than 4.2 kg): 28.0%
- average survival period (cats with CKD [2]; stage 3): 25.3 months
- median survival period (cats with CKD [2]; stage 3): 23.4 months
- average survival period of BPS therapy group relative to No BPS therapy group (cats with CKD [2]; [6]): 1.54 times
- 3-year overall survival rate of BPS therapy group relative to No BPS therapy group (cats with CKD [2]; stage 3 and body weight of less than 4.2 kg (Example 6)): 2.77 times
- effect on overall survival rate or observed survival rate (cats with CKD [2]; stage 3 and body weight of less than 4.2 kg before initiation of administration): effects of BPS administration to improve the overall survival rate or the observed survival rate were observed
- average survival period (cats with CKD [2]; [6]): 22.4 months
- median survival period (cats with CKD [2]; [6]): 19.8 months
- effect on overall survival rate or observed survival rate (cats with CKD [2]; stage 3 before initiation of administration): effects of BPS administration to improve the overall survival rate or the observed survival rate were observed
- 2-year overall survival rate of BPS therapy group relative to No BPS therapy group (cats with CKD [2]; stage 4): 4.80 times
- average survival period of BPS therapy group relative to No BPS therapy group (cats with CKD [2]; stage 4): 2.43 times
- average survival period (cats with CKD [2]; stage 4): 14.1 months
- median survival period (cats with CKD [2]; stage 4): 10.2 months
- effect on overall survival rate or observed survival rate (cats with CKD [2]; stage 4 before initiation of administration): effects of BPS administration to improve the overall survival rate or the observed survival rate were observed
- 3-year stage progression-free rate (cats with CKD [3]; serum creatinine 1.6 to 2.8 mg/dL (stage 2), BPS 18.5 to 42.3 μg/kg body weight/day): 74.7%
- 3-year stage progression-free rate (cats with CKD [3]; serum creatinine 2.9 to 5.0 mg/dL (stage 3), BPS 14.1 to 52.4 μg/kg body weight/day): 32.7%
- 3-year stage progression-free rate of BPS therapy group relative to No BPS therapy group (cats with CKD [3]; [7]): 0.83 times
- average stage progression-free period of BPS therapy group relative to No BPS therapy group (cats with CKD [3]; [7]): 0.93 times
- effect on progression into stage 4 (cats with CKD [3]; stage 2 (serum creatinine 1.6 to 2.8 mg/dL) before initiation of administration): no effects of BPS administration to inhibit progression into stage 4 were observed
- average period before progression into stage 4 (cats with CKD [3]; stage 2 (serum creatinine 1.6 to 2.8 mg/dL), Kaplan-Meier): 38.0 months
- 3-year stage progression-free rate of BPS therapy group relative to No BPS therapy group (cats with CKD [3]; [8]): 1.25 times
- average stage progression-free period of BPS therapy group relative to No BPS therapy group (cats with CKD [3]; [8]): 1.49 times
- effect on progression into stage 4 (cats with CKD [3]; stage 3 (serum creatinine 2.9 to 5.0 mg/dL) before initiation of administration): effects of BPS administration to inhibit progression into stage 4 were observed
- average period before progression into stage 4 (cats with CKD [3]; [9]): 26.5 months
- median period before progression into stage 4 (cats with CKD [3]; [9]): 31.6 months
- adverse side effects [4, 10]: without adverse side effects
- kidney function marker values [4, 10]: inhibit elevation in kidney function marker values such as serum creatinine and BUN
- tolerability and safety ([4]; 55 μg twice daily for 6 months): well-tolerated and safe
- serum creatinine ([4]; 55 μg twice daily for 6 months, vs placebo): inhibited serum creatinine elevation observed in the placebo group
